# Source: paper PMC12040169 (PLOS Biology, 2025)
# Assay: in vitro
# Conditions: human, hela cells, % viability
row,Structure (SMILES),"viability at 28.5 h, 10 µM"
1,O=C(NCCCN1CCOCC1)c1nn2c(C(F)(F)F)cc(-c3cccs3)nc2c1Cl [CBK262553],82%
2,O=C(CN1CCOCC1)N1CCN(C(=O)c2ccc(C(F)(F)F)cc2)C1 [CBK051555C],92.1%
3,CCN1CCc2nc(NC(=O)Cc3cn4ccsc4n3)sc2C1 [CBK304534],90%
4,Nc1cccc(-c2cc(C(=O)NCCc3cccnc3)cnc2-c2ccc(F)cc2)c1 [CBK038016],102%
5,COc1cc2c(cc1C(C)c1ccc3c(c1)OCO3)OCO2 (centres unmarked) [CBK200107],97.4%
6,Cc1noc(C)c1C(=O)N1CC[C@H]2NC(=O)c3ccccc3OCC/C=C/C[C@H]2C1 [CBK291994],100%
7,CCn1c2cc(C)sc2c2cnn(CC(=O)N3CCCC3)c(=O)c21 [CBK284168],99.8%
8,O=C(c1nn2c(c1Br)NC(c1cccs1)CC2C(F)(F)F)N1CCCC1 (centres unmarked) [CBK307180],88.7%
9,OCC12COC3c4ccccc4C(OC1)N32 (centres unmarked) [CBK006347],89.5%
10,CC(=O)N[C@H](Cc1c[nH]c2ccccc12)C(=O)N1CC[C@H]2NC(=O)[C@H](Cc3ccccc3)NC(=O)C3(C/C=C/C[C@H]2C1)CCOCC3 [CBK292205],89.9%
11,Cc1cc(C2CCCCCN2C(=O)c2ccccc2F)on1 (centres unmarked) [CBK284842],94.5%
12,COc1ccc2[nH]cc(C3CCN(C(=O)c4cc(C#N)c[nH]4)CC3)c2c1 [CBK305479],93.2%
13,O=C(CN1CCN(Cc2ccccc2)CC1)Nc1ccccc1Oc1ccccc1 [CBK074782],90.2%
14,COc1ccc(CNc2cncc(-c3cncc(OC)c3)n2)cc1 [CBK065388],98.5%
15,O=C(NCc1ccc(-c2csnn2)cc1)c1cccnc1 [CBK149309],87%
16,O=C1COc2ccccc2C/C=C/CC2(CCN(C(=O)c3cnccn3)CC2)C(=O)NCCN1 [CBK291997],106%
17,CCC(=O)NCCCn1c(-c2cccnc2C)cc2cccnc21 [CBK282646],90.4%
18,Cc1ccc(N(CC(=O)NCC2CCCO2)S(C)(=O)=O)cc1 (centres unmarked) [CBK058709],88.1%

row,Structure (SMILES),"viability at 28.5 h, 10 µM"
1,O=C1CCCCC1SCn1nnc2ccccc21 (centres unmarked) [CBK011412],94.8%
2,c1ccc(-c2nnc3ccccc3c2NCCCN2CCOCC2)cc1 [CBK066892],93.9%
3,O=C(O)c1cc(S(=O)(=O)Nc2ccc(O)cc2)c(Cl)cc1Cl [CBK113231],86.8%
4,COC(=O)c1sc(NC(=O)C2CC2)c(C#N)c1C [CBK026049],107%
5,COC(=O)c1ccc(N2CCN(Cc3nc(C4CC4)no3)C(C)C2)cc1 (centres unmarked) [CBK305744],98%
6,Nc1ncc(-c2ccc(C(=O)N3CCOCC3)cc2)cc1C(=O)NCCc1ccc(O)cc1 [CBK158577],92.5%
7,O=C(c1ccc(Cl)cc1)c1ccc(OCC(=O)N2CCN(C(=O)c3ccco3)CC2)cc1 [CBK295658],89.2%
8,CCn1c(CCCNC=O)nc2ccccc21 [CBK269551],86.2%
9,CCS(=O)(=O)N1CCc2cc(-c3csc(-c4cnn(C)c4)n3)ccc21 [CBK305560],93.7%
10,O=C(NCc1cccnc1)/C(=N\O)c1ccccc1 [CBK288416],102%
11,O=C(NCc1ccccc1F)c1cccc(CN2C(=O)CSC2=O)c1 [CBK296730],100%
12,CCc1ccc(C2=CC(c3cccc(C)c3)n3nnnc3N2)cc1 (centres unmarked) [CBK268095],88.6%
13,CCn1c(SCC(=O)Nc2cccc([N+](=O)[O-])c2)nnc1-c1cc(Br)ccc1O [CBK267980],86%
14,Cc1nc(O)c2c3c(sc2n1)CCCC3 [CBK016462],83.1%
15,CCCc1cc(C(=O)OC)c(NC(=O)C2CC=CCC2C(=O)O)s1 (centres unmarked) [CBK265397],117%
16,Cc1ncc(CNC(=O)C2CC2)c(-c2cn(C)c3ccccc23)n1 [CBK283366],103%
17,Cc1ccc(S(=O)(=O)NCC(=O)Nc2cc3ccccc3c(Br)n2)cc1 [CBK063300],101%
